Source: ChEMBL document CHEMBL3526130, “An evaluation of using rat-derived single-dose neuropharmacokinetic parameters to project accurately large animal unbound brain drug concentrations” (Drug Metab Dispos, 2012)

Experiments:
[1] = Unbound fraction in cynomolgus monkey plasma treated with risperidone at 0.1 mg/kg, sc by LC-MS/MS analysis; type: ADME, organism-based, Macaca fascicularis; set-up: dose 0.1 mg/kg, route subcutaneous
[2] = Unbound fraction in cynomolgus monkey brain treated with risperidone at 0.1 mg/kg, sc by LC-MS/MS analysis; type: ADME, organism-based, Macaca fascicularis; set-up: dose 0.1 mg/kg, route subcutaneous
[3] = AUC(0 to 2 hrs) in Beagle dog plasma treated with risperidone at 0.1 mg/kg, sc by LC-MS/MS analysis; type: ADME, organism-based, Canis lupus familiaris; set-up: time < 2 hr, dose 0.1 mg/kg, route subcutaneous
[4] = AUC(0 to 1 hr) in cynomolgus monkey plasma treated with risperidone at 0.1 mg/kg, sc by LC-MS/MS analysis; type: ADME, organism-based, Macaca fascicularis; set-up: time < 1 hr, dose 0.1 mg/kg, route subcutaneous
[5] = AUC(0 to 2 hrs) in Sprague-Dawley rat plasma treated with risperidone at 1 mg/kg, sc by LC-MS/MS analysis; type: ADME, organism-based; set-up: time < 2 hr, dose 1 mg/kg, route subcutaneous
[6] = AUC(0 to infinity) in Sprague-Dawley rat plasma treated with risperidone at 1 mg/kg, sc by LC-MS/MS analysis; type: ADME, organism-based; set-up: time infinity, dose 1 mg/kg, route subcutaneous
[7] = AUC(0 to 2 hrs) in Sprague-Dawley rat cerebrospinal fluid treated with risperidone at 1 mg/kg, sc by LC-MS/MS analysis; type: ADME, organism-based; set-up: time < 2 hr, dose 1 mg/kg, route subcutaneous
[8] = AUC(0 to infinity) in Sprague-Dawley rat cerebrospinal fluid treated with risperidone at 1 mg/kg, sc by LC-MS/MS analysis; type: ADME, organism-based; set-up: time infinity, dose 1 mg/kg, route subcutaneous
[9] = Ratio of drug level in brain to plasma in Sprague-Dawley rat treated with risperidone at 1 mg/kg, sc by LC-MS/MS analysis; type: ADME, organism-based; set-up: dose 1 mg/kg, route subcutaneous; details: read-out: BPR
Nucleic Acid = assay: Ratio of drug level in cerebrospinal fluid to unbound plasma concentration in Sprague-Dawley rat treated with risperidone at 1 mg/kg, sc by LC-MS/MS analysis; type: ADME, organism-based; set-up: dose 1 mg/kg, route subcutaneous; details: in vivo
[10] = Ratio of unbound brain concentration to drug level in cerebrospinal fluid in Sprague-Dawley rat treated with risperidone at 1 mg/kg, sc by LC-MS/MS analysis; type: ADME, organism-based; set-up: dose 1 mg/kg, route subcutaneous; details: in vivo
[11] = Ratio of unbound drug level in brain to plasma in Sprague-Dawley rat treated with risperidone at 1 mg/kg, sc by LC-MS/MS analysis; type: ADME, organism-based; set-up: dose 1 mg/kg, route subcutaneous
[12] = Unbound fraction in Beagle dog plasma treated with risperidone at 0.1 mg/kg, sc by LC-MS/MS analysis; type: ADME, organism-based, Canis lupus familiaris; set-up: dose 0.1 mg/kg, route subcutaneous
[13] = Unbound fraction in Beagle dog brain treated with risperidone at 0.1 mg/kg, sc by LC-MS/MS analysis; type: ADME, organism-based, Canis lupus familiaris; set-up: dose 0.1 mg/kg, route subcutaneous
[14] = AUC(0 to 2 hrs) in Sprague-Dawley rat brain treated with risperidone at 1 mg/kg, sc by LC-MS/MS analysis; type: ADME, organism-based; set-up: time < 2 hr, dose 1 mg/kg, route subcutaneous
[15] = AUC(0 to infinity) in Sprague-Dawley rat brain treated with risperidone at 1 mg/kg, sc by LC-MS/MS analysis; type: ADME, organism-based; set-up: time infinity, dose 1 mg/kg, route subcutaneous
[16] = Ratio of unbound brain concentration to drug level in cerebrospinal fluid in Beagle dog treated with risperidone at 0.1 mg/kg, sc by LC-MS/MS analysis; type: ADME, organism-based, Canis lupus familiaris; set-up: dose 0.1 mg/kg, route subcutaneous; details: in vivo
[17] = Ratio of unbound brain concentration to drug level in cerebrospinal fluid in cynomolgus monkey treated with risperidone at 0.1 mg/kg, sc by LC-MS/MS analysis; type: ADME, organism-based, Macaca fascicularis; set-up: dose 0.1 mg/kg, route subcutaneous; details: in vivo
[18] = Ratio of unbound drug level in brain to plasma in Beagle dog treated with risperidone at 0.1 mg/kg, sc by LC-MS/MS analysis; type: ADME, organism-based, Canis lupus familiaris; set-up: dose 0.1 mg/kg, route subcutaneous; details: brain and plasma
[19] = Ratio of unbound drug level in brain to plasma in cynomolgus monkey treated with risperidone at 0.1 mg/kg, sc by LC-MS/MS analysis; type: ADME, organism-based, Macaca fascicularis; set-up: dose 0.1 mg/kg, route subcutaneous; details: brain and plasma
[20] = AUC(0 to 2 hrs) in Beagle dog cerebrospinal fluid treated with risperidone at 0.1 mg/kg, sc by LC-MS/MS analysis; type: ADME, organism-based, Canis lupus familiaris; set-up: time < 2 hr, dose 0.1 mg/kg, route subcutaneous
[21] = AUC(0 to 1 hr) in cynomolgus monkey cerebrospinal fluid treated with risperidone at 0.1 mg/kg, sc by LC-MS/MS analysis; type: ADME, organism-based, Macaca fascicularis; set-up: time < 1 hr, dose 0.1 mg/kg, route subcutaneous
[22] = AUC(0 to 2 hrs) in Beagle dog brain treated with risperidone at 0.1 mg/kg, sc by LC-MS/MS analysis; type: ADME, organism-based, Canis lupus familiaris; set-up: time < 2 hr, dose 0.1 mg/kg, route subcutaneous
[23] = AUC(0 to 1 hr) in cynomolgus monkey brain treated with risperidone at 0.1 mg/kg, sc by LC-MS/MS analysis; type: ADME, organism-based, Macaca fascicularis; set-up: time < 1 hr, dose 0.1 mg/kg, route subcutaneous
[24] = Ratio of drug level in brain to plasma in Beagle dog treated with risperidone at 0.1 mg/kg, sc by LC-MS/MS analysis; type: ADME, organism-based, Canis lupus familiaris; set-up: dose 0.1 mg/kg, route subcutaneous; details: brain and plasma, read-out: BPR
[25] = Ratio of drug level in brain to plasma in cynomolgus monkey treated with risperidone at 0.1 mg/kg, sc by LC-MS/MS analysis; type: ADME, organism-based, Macaca fascicularis; set-up: dose 0.1 mg/kg, route subcutaneous; details: brain and plasma, read-out: BPR

## Cc1nc2n(c(=O)c1CCN1CCC(c3noc4cc(F)ccc34)CC1)CCCC2O (stereo unspecified) [PALIPERIDONE]
[1]
  fraction unbound: 0.185
[2]
  fraction unbound: 0.105
[3]
  AUC(0-t) at 2 h: 77.4 ng·h/mL
[4]
  AUC(0-t) at 1 h: 76 ng·h/mL
[5]
  AUC(0-t) at 2 h: 184 ng·h/mL
[6]
  AUC(0-inf): 342 ng·h/mL
[7]
  AUC(0-t) at 2 h: 3.28 ng·h/mL
[8]
  AUC(0-inf): 12.2 ng·h/mL
[9]
  Kp: 0.07
Nucleic Acid
  Ratio: 0.14
[10]
  Ratio: 0.31
[11]
  Kp uu: 0.04
[12]
  fraction unbound: 0.203
[13]
  fraction unbound: 0.0903
[14]
  AUC(0-t) at 2 h: 13.5 ng·h/mL
[15]
  AUC(0-inf): 69 ng·h/mL
[16]
  Ratio: 0.68
[17]
  Ratio: 1.03
[18]
  Kp uu: 0.27
[19]
  Kp uu: 0.19
[20]
  AUC(0-t) at 2 h: 6.27 ng·h/mL
[21]
  AUC(0-t) at 1 h: 2.54 ng·h/mL
[22]
  AUC(0-t) at 2 h: 47.1 ng·h/mL
[23]
  AUC(0-t) at 1 h: 24.8 ng·h/mL
[24]
  Kp: 0.61
[25]
  Kp: 0.33
